{"source": "the NIST ThermoML archive (doi:10.1021/je700492k)", "conditions": "101.33 kPa, Liquid, Pycnometric method", "note": "Numbers after ± are expanded uncertainties."}
{"smiles": "CC(=O)CC(C)=O", "note": "[2,4-pentanedione]", "values": [{"measurement": "mass density", "setting": "298.15 K", "result": "972.1 ± 0.9", "unit": "kg/m3"}, {"measurement": "mass density", "setting": "313.15 K", "result": "954 ± 0.9", "unit": "kg/m3"}, {"measurement": "mass density", "setting": "328.15 K", "result": "939.3 ± 0.8", "unit": "kg/m3"}]}
